Columns and labels:
[1] = system: Kp NDM KIE; experiment: MIC of meropenem with or without DMSA or MSA; type: cell-based, K. pneumoniae
Procedure: (§1) MICs of meropenem with of without DMSA or MSA Table 3
(§2) DMSA and MSA were used at a concentration of 3 mM each. A negative control was used as strain KpC3 producing the non- metallo carbapenemase KPC

[2] = system: Kp NDM IND; experiment: MIC of meropenem with or without DMSA or MSA; type: cell-based, K. pneumoniae
Procedure: as §1, §2

[3] = system: Kp VIM KOW1; experiment: MIC of meropenem with or without DMSA or MSA; type: cell-based, K. pneumoniae
Procedure: as §1, §2

[4] = system: Kp C3 KPC-3; experiment: MIC of meropenem with or without DMSA or MSA (negative control strain, non-metallo carbapenemase KPC); type: cell-based, K. pneumoniae; conditions: Kp C3 KPC-3 (negative control)
Procedure: as §1, §2

[5] = system: E. coli VIM KOW7; experiment: MIC of meropenem with or without DMSA or MSA; type: cell-based
Procedure: (§3) DMSA reduced the MICs of ertapenem for bacteria producing NDM-1 though the synergy effect was weaker than that observed for bacteria producing IMP and VIM-type MBLs.
as §1, §2

[6] = system: E. coli NDM CHAN; experiment: MIC of meropenem with or without DMSA or MSA; type: cell-based
Procedure: as §3, §1, §2

[7] = system: E. coli NDM FEK; experiment: MIC of meropenem with or without DMSA or MSA; type: cell-based
Procedure: as §3, §1, §2

[8] = system: E. coli NDM pCR2.1; experiment: MIC of meropenem with or without DMSA or MSA; type: cell-based
Procedure: as §3, §1, §2

[9] = molecular target: T1, NDM-1 (Klebsiella pneumoniae, UniProt C7C422); conditions: affinity for NDM-1; cited from earlier work
T1 construct: made in house
T1 sequence (C7C422 29-270, looked up): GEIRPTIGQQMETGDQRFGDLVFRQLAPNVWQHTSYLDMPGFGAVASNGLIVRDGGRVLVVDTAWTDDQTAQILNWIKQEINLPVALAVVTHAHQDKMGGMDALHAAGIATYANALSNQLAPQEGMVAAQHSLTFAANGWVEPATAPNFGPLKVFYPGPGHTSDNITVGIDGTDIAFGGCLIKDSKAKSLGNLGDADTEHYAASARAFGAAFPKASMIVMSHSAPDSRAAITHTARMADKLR

[10] = system: K.p. 0709124; experiment: MIC of carbapenems with or without DMSA; type: cell-based, K. pneumoniae; conditions: K.p. 0709124, IMP-1b + TEM-15; no DMSA
Procedure: (§4) Minimum inhibitory concentrations (MICs) of carbapenems were determined in-vitro with strains (reference and clinical) producing the three main types of class B carbapenemases which are IMP, VIM and NDM, with or without EDTA and DMSA.
(§5) MICs of imipenem was determined for E. coli TOP10 pCR2.1-(PNDM-1-blaNDM-1-bleMBL) in the presence of 0, 0.01, 0.1 or 1 mg/ml of Ca-EDTA or DMSA by using the broth microdilution method in zinc-complemented M9CA minimum medium (SD7025, Euromedex, France).
(§6) A 100 mM DMSA stock solution (Sigma Aldrich, France) (pH 5.0) was prepared in 0.2 M NaOH as recommended (Maiorino et al. 1990) and pH was neutralized to pH 7.0 with NaHCO3 Na2Ca-EDTA (Sigma Aldrich, France) dissolved in water.
(§7) The strains were as follows: VIM producers (n=10), IMP producers (n=9), NDM-1 producers (n=10). The selected concentration of DMSA was 10-fold (0.3 mM) and 100-fold (3 mM) that of the human peak serum concentration after oral administration (Asiedu et al;, 1995), and that of Ca-EDTA was assayed at the fixed concentration of 0.2 mM (Table 2). […]

[11] = system: K.p. 6852; experiment: MIC of carbapenems with or without DMSA; type: cell-based, K. pneumoniae; conditions: K.p. 6852, IMP-1 + SHV-5; no DMSA
Procedure: as §4, §5, §6, §7

[12] = system: K.p. TAW; experiment: MIC of carbapenems with or without DMSA; type: cell-based, K. pneumoniae; conditions: IMP-8 + SHV-5, no DMSA
Procedure: as §4, §5, §6, §7

[13] = system: K.p. ROUM; experiment: MIC of carbapenems with or without DMSA; type: cell-based, K. pneumoniae; conditions: VIM, no DMSA
Procedure: as §4, §5, §6, §7

[14] = system: E. coli 0404018; experiment: MIC of carbapenems with or without DMSA; type: cell-based; conditions: E. coli 0404018, VIM-1 + CMY-6; no DMSA
Procedure: as §4, §5, §6, §7

[15] = system: E. coli JAP; experiment: MIC of carbapenems with or without DMSA; type: cell-based; conditions: IMP-1, no DMSA
Procedure: as §4, §5, §6, §7

[16] = system: E. coli 405; experiment: MIC of carbapenems with or without DMSA; type: cell-based; conditions: E. coli 405, NDM-5 + TEM-1 +CTX-M-15; no DMSA
Procedure: as §4, §5, §6, §7

[17] = system: E. coli 1108013; experiment: MIC of carbapenems with or without DMSA; type: cell-based; conditions: E. coli 1108013, IMP-1 + TEM-1; no DMSA
Procedure: as §4, §5, §6, §7

[18] = system: E. coli 1008077; experiment: MIC of carbapenems with or without DMSA; type: cell-based; conditions: E. coli 1008077, VIM-1 + TEM-3; no DMSA
Procedure: as §4, §5, §6, §7

[19] = system: E. cloacae 1008085; experiment: MIC of carbapenems with or without DMSA; type: cell-based; conditions: E. cloacae 1008085, IMP-1; no DMSA
Procedure: as §4, §5, §6, §7

[20] = system: E. coli IBIS; experiment: MIC of carbapenems with or without DMSA; type: cell-based; conditions: VIM-4, no DMSA, unit assumed
Procedure: as §4, §5, §6, §7

[21] = system: E. coli IR5; experiment: MIC of carbapenems with or without DMSA; type: cell-based; conditions: E. coli IR5, NDM-1 + TEM-1 +CTX-M-15; no DMSA
Procedure: as §4, §5, §6, §7

[22] = system: E. cloacae 1008029; experiment: MIC of carbapenems with or without DMSA; type: cell-based; conditions: E. cloacae 1008029, VIM-1 + CTX-M-3; no DMSA
Procedure: as §4, §5, §6, §7

[23] = system: E. coli MAD; experiment: MIC of carbapenems with or without DMSA; type: cell-based; conditions: VIM-1 + CTX-M-3, no DMSA
Procedure: as §4, §5, §6, §7

[24] = system: E. cloacae 1008183; experiment: MIC of carbapenems with or without DMSA; type: cell-based; conditions: E. cloacae 1008183, IMP-1; no DMSA
Procedure: as §4, §5, §6, §7

[25] = system: E. cloacae TAW; experiment: MIC of carbapenems with or without DMSA; type: cell-based; conditions: IMP-8, no DMSA
Procedure: as §4, §5, §6, §7

[26] = system: E. coli BOUN; experiment: MIC of carbapenems with or without DMSA; type: cell-based; conditions: NDM-4 + OXA-1, no DMSA
Procedure: as §4, §5, §6, §7

[27] = system: E. coli COUP; experiment: MIC of carbapenems with or without DMSA; type: cell-based; conditions: NDM-7 + OXA-1 +CTX-M-15, no DMSA
Procedure: as §4, §5, §6, §7

[28] = system: E. cloacae 396715; experiment: MIC of carbapenems with or without DMSA; type: cell-based; conditions: E. cloacae 396715, VIM-1; no DMSA
Procedure: as §4, §5, §6, §7

[29] = system: E. coli DIH; experiment: MIC of carbapenems with or without DMSA; type: cell-based; conditions: VIM-19, no DMSA
Procedure: as §4, §5, §6, §7

[30] = system: E. cloacae 1008186; experiment: MIC of carbapenems with or without DMSA; type: cell-based; conditions: E. cloacae 1008186, IMP-1; no DMSA
Procedure: as §4, §5, §6, §7

[31] = system: E. coli 162; experiment: MIC of carbapenems with or without DMSA; type: cell-based; conditions: E. coli 162, NDM-5 + TEM-1 +CTX-M-15; no DMSA
Procedure: as §4, §5, §6, §7

[32] = after a single oral dose of DMSA (10 mg); cited from earlier work
[33] = system: E. coli TOP10 pCR2.1-(PNDM-1-blaNDM-1-bleMBL); experiment: MIC of imipenem, broth microdilution in zinc-complemented M9CA minimum medium; type: cell-based
Excerpt: (§8) Inhibitory properties of DMSA and EDTA were also compared in-vitro by UV spectrophotometry using purified NDM-1 protein and carbapenems as substrates. E. coli TOP10 pCR2.1-(PNDM-1-blaNDM-1-bleMBL), expressing the blaNDM-1 gene with its original promoter (PNDM-1) cloned into a pTOPO multicopy plasmid and expressed in E. coli TOP10 reference strain (Dortet et al. 2012) was used for preliminary assays in order to determine the most efficient of DMSA being active against NDM producers.
MICs of imipenem was determined for E. coli TOP10 pCR2.1-(PNDM-1-blaNDM-1-bleMBL) in the presence of 0, 0.01, 0.1 or 1 mg/ml of Ca-EDTA or DMSA by using the broth microdilution method in zinc-complemented M9CA minimum medium (SD7025, Euromedex, France). M9CA minimal medium was used preferably to the standard Mueller Hinton broth in order to determine precisely the concentration of zinc in broth (ZnSO4, Sigma Aldrich, France, 5µg/ml (final concentration).
as §6

[34] = system: IMP-like producers; experiment: MIC of carbapenems, summary over IMP producers (n=9); type: cell-based
Procedure: as §7, with “2). The MICs of carbapenems varied widely among isolates producing a same carbapenemase type. DMSA at 3 mM lowered the MICs of imipenem and ertapenem of IMP-like producers (100% of the tested isolates), and VIM-like producers (70 to 80 % of the tested isolates).” for “2).”

[35] = molecular target: T1, NDM-1; experiment: Inhibition of purified NDM-1 hydrolytic activity, UV spectrophotometry; type: biochemical
Excerpt: as §8
Inhibition of NDM-1 by DMSA was assessed on a purified fraction of NDM-1, obtained as previously described for NDM-4 (Nordmann et al. 2012) with imipenem 100 µM as substrate.

[36] = system: NDM-like producers; experiment: MIC of carbapenems, summary over NDM producers (n=10); type: cell-based; conditions: DMSA at 3 mM
Procedure: as §7, with “2). The MICs of carbapenems varied widely among isolates producing a same carbapenemase type. DMSA at 3 mM lowered the MICs of imipenem and ertapenem of IMP-like producers (100% of the tested isolates), and VIM-like producers (70 to 80 % of the tested isolates).” for “2).”

[37] = molecular target: IMP-1 (Serratia marcescens, UniProt P52699); conditions: 20 microM; cited from earlier work
Chain of IMP-1 (P52699 19-246 limits assumed): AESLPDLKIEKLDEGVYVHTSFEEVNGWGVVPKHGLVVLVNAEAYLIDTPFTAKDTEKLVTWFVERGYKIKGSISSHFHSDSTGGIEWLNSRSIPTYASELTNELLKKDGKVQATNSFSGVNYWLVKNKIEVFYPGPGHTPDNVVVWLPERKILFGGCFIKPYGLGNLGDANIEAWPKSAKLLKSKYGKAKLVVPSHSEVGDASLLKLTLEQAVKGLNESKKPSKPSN

[38] = Klebsiella pneumoniae, without DMSA or MSA
[39] = Escherichia coli, without DMSA or MSA

## C[C@@H](O)[C@H]1C(=O)N2C(C(=O)O)=C(S[C@@H]3CN[C@H](C(=O)N(C)C)C3)[C@H](C)[C@H]12 [meropenem]
[1]; [38]
  MIC: 4 µg/mL
[2]; [38]
  MIC: 4 µg/mL
[3]; Klebsiella pneumoniae, VIMKOW1, without DMSA or MSA
  MIC: > 32 µg/mL
[4]; Klebsiella pneumoniae, C3KPC3, without DMSA or MSA
  MIC: > 32 µg/mL
[5]; Escherichia coli, VIMKOW7, without DMSA or MSA
  MIC: 0.5 µg/mL
[6]; [39]
  MIC: 3 µg/mL
[7]; [39]
  MIC: 6 µg/mL
[8]; Escherichia coli, NDMPCR2.1, read-out: MIC of meropenem
  MIC: > 32 µg/mL

## CC/C(C(=O)O)=C(\CC)C(=O)O [ME1071]
[9]
  Ki: 24 mM

## C[C@@H](O)[C@H]1C(=O)N2C(C(=O)O)=C(SCCN=CN)C[C@H]12 [IPM, imipenem]
[10]
  MIC: 32 µg/mL
[11]
  MIC: > 32 µg/mL
[12]
  MIC: 4 µg/mL
[13]
  MIC: 32 µg/mL
[14]
  MIC: 4 µg/mL
[15]
  MIC: 0.25 µg/mL
[16]
  MIC: 32 µg/mL
[17]
  MIC: 4 µg/mL
[18]
  MIC: 32 µg/mL
[19]
  MIC: 2 µg/mL
[20]
  MIC: 1 µg/mL
[21]
  MIC: 2 µg/mL
[22]
  MIC: 16 µg/mL
[23]
  MIC: 0.25 µg/mL
[24]
  MIC: 8 µg/mL
[25]
  MIC: 4 µg/mL
[26]
  MIC: 2 µg/mL
[27]
  MIC: 2 µg/mL
[28]
  MIC: 4 µg/mL
[29]
  MIC: 16 µg/mL
[30]
  MIC: 16 µg/mL
[31]
  MIC: 32 µg/mL

## O=C(O)[C@@H](S)[C@@H](S)C(=O)O [DMSA, meso-2,3-dimercaptosuccinic acid]
[1]; DMSA or MSA at 3 mM
  MIC of meropenem: 0.5 µg/mL
[2]; DMSA or MSA at 3 mM
  MIC of meropenem: 4 µg/mL
[3]; DMSA or MSA at 3 mM
  MIC of meropenem: 32 µg/mL
[32]
  plasma concentrations of DMSA: ca. 100 µM
[4]; DMSA or MSA at 3 mM
  MIC of meropenem: > 32 µg/mL
[5]; DMSA or MSA at 3 mM
  MIC of meropenem: 0.25 µg/mL
[6]; DMSA or MSA at 3 mM
  MIC of meropenem: 2 µg/mL
[7]; DMSA or MSA at 3 mM
  MIC of meropenem: 4 µg/mL
[8]; E. coli NDM pCR2.1, DMSA or MSA at 3 mM
  MIC of meropenem: 8 µg/mL
[33]; DMSA 0 mg/ml (imipenem alone)
  MIC of imipenem: 12 µg/mL
[33]; DMSA 0.01 mg/ml
  MIC of imipenem: 12 µg/mL
[33]; DMSA 0.1 mg/ml
  MIC of imipenem: 12 µg/mL
[33]; DMSA 1 mg/ml
  MIC of imipenem: 0.2 µg/mL
[34]; DMSA 0.3 mM, IMP-like producing isolates
  effect on the MICs of carbapenems: lowered the MICs of carbapenems for most IMP-like producing isolates
[34]; DMSA at 3 mM, IMP-like producers
  tested isolates for which the MICs of imipenem and ertapenem were lowered: 100%
[35]
  IC50: 1 mM
[36]
  effect on the MIC values of imipenem: did not significantly affect
  tested isolates for which the MICs of ertapenem were reduced: 50%
[37]
  inhibition of IMP-1: inhibit

Source: patent publication EP2979694B1, “Dimercaptosuccinic acid for the treatment of multidrug resistant bacterial infections” (priority 2014, dated 2016)
